From patent US7563895B2, “Quinoxaline compounds” (Janssen Pharmaceutica, N.V., priority 2003, dated 2009)

Each compound was assayed against T1, CCK2 receptor (Homo sapiens, UniProt P32239) (assay: CCK2 receptor radioligand binding assay ([125I]-BH-CCK-8S, HEKZFP cell membranes)). Conditions: competition with [125I]-BH-CCK-8S, membranes of induced HEKZFP cells, 60 min at 21±3° C., Cheng-Prusoff.
T1 construct: Membranes were prepared from the HEKZFP cells after induction; endogenous in cells; host or cells: HEKZFP cells (T-REx-293 with tet-inducible ZFP-VP16 specific for the CCK2R gene), doxycycline-induced; membrane preparation
T1 sequence (P32239 1-447): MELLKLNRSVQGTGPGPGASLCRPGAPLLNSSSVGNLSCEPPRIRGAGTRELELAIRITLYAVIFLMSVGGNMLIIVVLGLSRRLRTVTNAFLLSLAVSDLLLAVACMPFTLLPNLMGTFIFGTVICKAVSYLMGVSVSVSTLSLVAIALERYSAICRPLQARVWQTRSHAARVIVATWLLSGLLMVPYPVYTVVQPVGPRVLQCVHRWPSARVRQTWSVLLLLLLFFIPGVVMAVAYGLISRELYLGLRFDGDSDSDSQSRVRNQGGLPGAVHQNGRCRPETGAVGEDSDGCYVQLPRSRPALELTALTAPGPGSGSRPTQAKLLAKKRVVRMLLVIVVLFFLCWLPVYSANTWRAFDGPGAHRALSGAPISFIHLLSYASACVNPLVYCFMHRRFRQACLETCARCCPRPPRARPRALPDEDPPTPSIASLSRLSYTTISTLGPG
Experimental: Zinc Finger Proteins (ZFP) specific for the CCK2R gene were identified by Sangamo Biosciences. The ZFP domain was fused with the herpes simplex virus VP16 activation domain, and the fusion protein was subsequently cloned into the pcDNA3 mammalian expression vector (Invitrogen, San Diego, Calif.). […] After 2 weeks of selection in culture medium containing […] Zeocin (Invitrogen), sixty drug-resistant stable clones were isolated and analyzed for ZFP expression as well as CCK2R induction upon addition of doxycycline to the culture medium.
HEKZFP cells were grown in DMEM supplemented with L-glutamine (2 mM), penicillin (50 units/mL) and streptomycin (50 μg/mL) and 10% FBS (v/v).
Membranes were prepared from the HEKZFP cells after induction. […] The thawed pellets were homogenized using a Polytron PT-10 (7×1 s). The homogenates were centrifuged for 5 min at 1500 rpm (600×g), and the resulting pellets were discarded. The supernatants were re-centrifuged in order to collect the receptor-membrane pellets (25 min 15,000 rpm; 39,800×g), which were re-suspended in buffer A.
The assay preparation was incubated for 1 h at 21±3° C., and then the assay was terminated by rapid filtration of the preparation under reduced pressure. The loaded filters were washed three times using undiluted PBS (100 μL), and then 100 μL of scintillation fluid was added to the filter plate. Bound radioactivity was determined using a Topcount (Packard BioScience, Meriden, Conn.) with a count time of 1 min. […] To validate the radioligand concentration and incubation time for the assay, saturation and kinetic binding studies were also conducted (see M. F. Morton, The Pharmacological Characterization of Cholecystokinin Receptors in the Human Gastrointestinal Tract. PhD Thesis, University of London, 2000). […] The assay was then terminated according to the procedure outlined above.
The pKi values were determined using the equation of Y.-C.
To circumvent problems associated with computer-assisted data analysis of compounds with low affinity, the data obtained in the current study were weighed according to a method described by Morton. In brief, 100% and 0% specific binding were defined independently using total binding and binding obtained in the presence of a high concentration of the reference antagonist, 2-NAP.

Row | SMILES | pKi | Ki [nM]
1 | O=C(NCc1ccc(F)cc1F)c1ccc(I)cc1NS(=O)(=O)c1cccc2nccnc12 [Example 57, N-(2,4-Difluoro-benzyl)-4-iodo-2-(quinoxaline-5-sulfonylamino)-benzamide] | 7.4 | 
2 | C[C@@H]1COCCN1C(=O)c1ccc(Br)cc1NS(=O)(=O)c1cccc2nccnc12 [Example 12, (R)-Quinoxaline-5-sulfonic acid [5-bromo-2-(3-methylmorpholine-4-carbonyl)-phenyl]-amide] |  | 79.4
3 | C[C@@H](NC(=O)c1ccc(I)cc1NS(=O)(=O)c1cccc2nccnc12)c1ccc(F)cc1 [Example 63, (R)-N-[1-(4-Fluoro-phenyl)-ethyl]-4-iodo-2-(quinoxaline-5-sulfonylamino)-benzamide] |  | 31.6
4 | CC(NC(=O)c1ccc(I)cc1NS(=O)(=O)c1cccc2nccnc12)c1ccc(F)cc1 (stereo not shown) [Example 54, N-[1-(4-Fluoro-phenyl)-ethyl]-4-iodo-2-(quinoxaline-5-sulfonylamino)-benzamide] |  | 39.8
5 | C[C@H]1COCCN1C(=O)c1ccc(Br)cc1NS(=O)(=O)c1cccc2nccnc12 [Example 28, (S)-Quinoxaline-5-sulfonic acid [5-bromo-2-(3-methylmorpholine-4-carbonyl)-phenyl]-amide] |  | 398
6 | O=C(N[C@H](CF)c1ccc(F)cc1F)c1ccc(Cl)cc1NS(=O)(=O)c1cccc2nccnc12 [Example 78, (S)-4-Chloro-N-[1-(2,4-difluoro-phenyl)-2-fluoro-ethyl]-2-(quinoxaline-5-sulfonylamino)-benzamide] |  | 39.8
7 | O=C(N[C@H](CF)c1ccc(F)cc1)c1ccc(I)cc1NS(=O)(=O)c1cccc2nccnc12 [Example 73, (S)-N-[2-Fluoro-1-(4-fluoro-phenyl)-ethyl]-4-iodo-2-(quinoxaline-5-sulfonylamino)-benzamide] |  | 79.4
8 | O=C(c1ccc(I)cc1NS(=O)(=O)c1cccc2nccnc12)N1CCCCCC1 [Example 18, Quinoxaline-5-sulfonic acid [2-(azepane-1-carbonyl)-5-iodophenyl]-amide] |  | 63.1
9 | O=C(N[C@H](CF)c1ccc(F)cc1F)c1ccc(I)cc1NS(=O)(=O)c1cccc2nccnc12 [Example 77, (S)-N-[1-(2,4-Difluoro-phenyl)-2-fluoro-ethyl]-4-iodo-2-(quinoxaline-5-sulfonylamino)-benzamide] |  | 50.1
10 | O=C(NCc1ccc(F)cc1F)c1ccc(Br)cc1NS(=O)(=O)c1cccc2nccnc12 [Example 17, 4-Bromo-N-(2,4-difluoro-benzyl)-2-(quinoxaline-5-sulfonylamino)-benzamide] |  | 63.1
11 | C[C@@H](NC(=O)c1ccc(Br)cc1NS(=O)(=O)c1cccc2nccnc12)c1ccc(Cl)cc1Cl [Example 1, (R)-4-Bromo-N-[1-(2,4-dichlorophenyl)-ethyl]-2-(quinoxaline-5-sulfonylamino)-benzamide] |  | 7.94
12 | CN(Cc1ccc(F)cc1)C(=O)c1ccc(I)cc1NS(=O)(=O)c1cccc2nccnc12 [Example 35, N-(4-Fluorobenzyl)-4-iodo-N-methyl-2-(quinoxaline-5-sulfonylamino)-benzamide] |  | 15.8
13 | C[C@@H](NC(=O)c1ccc(F)cc1NS(=O)(=O)c1cccc2nccnc12)c1ccc(Cl)cc1Cl [Example 37, (R)—N-[1-(2,4-Dichlorophenyl)-ethyl]-4-fluoro-2-(quinoxaline-5-sulfonylamino)-benzamide] |  | 200
14 | C[C@@H](NC(=O)c1ccc(Br)cc1NS(=O)(=O)c1cccc2nccnc12)c1ccc(F)cc1 [Example 8, (R)-4-Bromo-N-[1-(4-fluorophenyl)-ethyl]-2-(quinoxaline-5-sulfonylamino)-benzamide] |  | 39.8
15 | C[C@H]1COCCN1C(=O)c1ccc(I)cc1NS(=O)(=O)c1cccc2nccnc12 [Example 23, (S)-Quinoxaline-5-sulfonic acid [5-iodo-2-(3-methylmorpholine-4-carbonyl)-phenyl]-amide] |  | 251
16 | C[C@@H]1COCCN1C(=O)c1ccc(I)cc1NS(=O)(=O)c1cccc2nccnc12 [Example 19, (R)-Quinoxaline-5-sulfonic acid [5-iodo-2-(3-methylmorpholine-4-carbonyl)-phenyl]-amide] |  | 79.4
17 | CC(NC(=O)c1ccc(Br)cc1NS(=O)(=O)c1cccc2nccnc12)c1ccc(F)cc1 (stereo not shown) [Example 53, 4-Bromo-N-[1-(4-fluoro-phenyl)-ethyl]-2-(quinoxaline-5-sulfonylamino)-benzamide] |  | 25.1

The remaining lines, values ahead:

Row | pKi | Ki [nM] | SMILES
18 |  | 158 | O=C(c1ccc(Cl)cc1NS(=O)(=O)c1cccc2nccnc12)N1CCOc2ccccc2C1 [Example 22, Quinoxaline-5-sulfonic acid [5-chloro-2-(2,3-dihydro-5H-benzo[f][1,4]oxazepine-4-carbonyl)-phenyl]-amide]
19 | 7.2 |  | O=C(c1ccc(Br)cc1NS(=O)(=O)c1cccc2nccnc12)N1CCOCC1 [Example 11, (R)-Quinoxaline-5-sulfonic acid [5-bromo-2-(morpholine-4-carbonyl)-phenyl]-amide]
20 |  | 79.4 | O=C(c1ccc(C(F)(F)F)cc1NS(=O)(=O)c1cccc2nccnc12)N1CCOCC1 [Example 92, Quinoxaline-5-sulfonic acid [2-(morpholine-4-carbonyl)-5-trifluoromethyl-phenyl]-amide]
21 | 7.2 |  | O=C(c1ccc(Br)cc1NS(=O)(=O)c1cccc2nccnc12)N1CCCCC1 [Example 32, Quinoxaline-5-sulfonic acid [5-bromo-2-(piperidine-1-carbonyl)-phenyl]-amide]
22 |  | 251 | O=C(c1ccc(Cl)cc1NS(=O)(=O)c1cccc2nccnc12)N1CCCCC1 [Example 79, Quinoxaline-5-sulfonic acid [5-chloro-2-(piperidine-1-carbonyl)-phenyl]-amide]
23 |  | 15.8 | C[C@H](c1ccccc1)N(C)C(=O)c1ccc(Cl)cc1NS(=O)(=O)c1cccc2nccnc12 [Example 62, (R)-4-Chloro-N-methyl-N-(1-phenyl-ethyl)-2-(quinoxaline-5-sulfonylamino)-benzamide]
24 | 6.5 |  | O=C(c1ccc(Cl)cc1NS(=O)(=O)c1cccc2nccnc12)N1CCOCC1 [Example 14, (R)-Quinoxaline-5-sulfonic acid [5-chloro-2-(morpholine-4-carbonyl)phenyl]-amide]
25 | 7.5 |  | O=C(c1ccc(I)cc1NS(=O)(=O)c1cccc2nccnc12)N1CCOCC1 [Example 6, Quinoxaline-5-sulfonic acid [5-iodo-2-(morpholine-4-carbonyl)-phenyl]-amide]
26 |  | 39.8 | C[C@H](NC(=O)c1ccc(Cl)cc1NS(=O)(=O)c1cccc2nccnc12)c1ccc(Cl)cc1Cl [Example 9, (S)-4-Chloro-N-[1-(2,4-dichlorophenyl)ethyl]-2-(quinoxaline-5-sulfonylamino)-benzamide]
27 |  | 10 | C[C@@H](NC(=O)c1ccc(Cl)cc1NS(=O)(=O)c1cccc2nccnc12)c1ccc(Cl)cc1Cl [Example 43, (R)-4-Chloro-N-[1-(2,4-dichloro-phenyl)-ethyl]-2-(quinoxaline-5-sulfonylamino)-benzamide]
28 |  | 12.6 | C[C@@H](NC(=O)c1ccc(Cl)cc1NS(=O)(=O)c1cccc2nccnc12)c1ccc(F)cc1F [Example 3, (R)-4-Chloro-N-[1-(2,4-difluorophenyl)-ethyl]-2-(quinoxaline-5-sulfonylamino)-benzamide]
